As a reminder, the IC50 is the midpoint of a concentration-inhibition curve. One may read the EC50 as the concentration needed to bring the measured effect to its halfway point. As a reminder, the Ki is the dissociation constant of the complex between target and ligand, obtained from inhibition or displacement.

A short description of assay [1]: Counterscreen for AddAB inhibitors: absorbance-based bacterial cell-based high throughput dose response assay for inhibitors of bacterial viability. [Related pubchem assays (depositor defined):AID435030, AID449728, AID449731, AID488942, AID488955, AID488956]. The format is functional. (A counterscreen serves to expose hits that act by an unwanted route or on another target.)

Assay [2] in a line: Luminescence Cell-Based Dose Response HTS to Identify Inhibitors of 5'UTR Stem-Loop Driven Prion Protein mRNA Translation in H4 Neuroglioblastoma Cells. [Related pubchem assays: 1827 (Project Summary), 1813 (Primary HTS)]. In kind it is functional.
Assay [3] has as its target T1, Sentrin-specific protease 7 (Homo sapiens, UniProt Q9BQF6).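 Also: Luminescence-based dose-response confirmation of ultra-high-throughput screening hits, measuring inhibition of SENP7.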
T1 sequence (Q9BQF6 whole entry): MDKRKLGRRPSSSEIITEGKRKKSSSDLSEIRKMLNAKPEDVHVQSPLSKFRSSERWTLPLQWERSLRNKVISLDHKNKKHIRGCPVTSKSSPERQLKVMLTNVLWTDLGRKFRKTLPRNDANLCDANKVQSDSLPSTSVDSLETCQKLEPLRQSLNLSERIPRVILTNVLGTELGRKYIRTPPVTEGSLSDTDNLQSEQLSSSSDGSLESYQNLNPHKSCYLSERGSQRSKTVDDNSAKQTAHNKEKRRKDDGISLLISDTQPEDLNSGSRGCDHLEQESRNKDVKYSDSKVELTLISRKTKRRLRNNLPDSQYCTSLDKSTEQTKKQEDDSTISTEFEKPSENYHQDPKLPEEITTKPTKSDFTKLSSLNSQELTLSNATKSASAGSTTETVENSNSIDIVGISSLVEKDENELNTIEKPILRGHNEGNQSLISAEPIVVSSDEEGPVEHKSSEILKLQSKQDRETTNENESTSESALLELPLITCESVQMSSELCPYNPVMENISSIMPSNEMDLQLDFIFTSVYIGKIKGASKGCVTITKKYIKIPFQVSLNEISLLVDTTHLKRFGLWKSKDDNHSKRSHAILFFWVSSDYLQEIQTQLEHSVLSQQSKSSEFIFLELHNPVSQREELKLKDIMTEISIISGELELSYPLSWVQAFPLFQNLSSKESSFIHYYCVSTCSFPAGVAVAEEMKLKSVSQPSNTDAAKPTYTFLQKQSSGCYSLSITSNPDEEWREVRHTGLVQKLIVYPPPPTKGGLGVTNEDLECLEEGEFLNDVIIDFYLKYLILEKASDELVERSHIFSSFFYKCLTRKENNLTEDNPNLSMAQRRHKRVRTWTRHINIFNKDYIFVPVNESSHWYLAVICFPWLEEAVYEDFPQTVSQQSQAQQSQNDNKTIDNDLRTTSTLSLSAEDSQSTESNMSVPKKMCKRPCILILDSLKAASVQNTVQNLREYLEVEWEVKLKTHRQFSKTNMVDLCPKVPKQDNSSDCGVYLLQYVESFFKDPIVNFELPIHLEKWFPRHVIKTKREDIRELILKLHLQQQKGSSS
The format is functional.

The test system of a further assay is HT-1080. Put plainly: HT1080 cell viability loss – fluorescence readout (AID 620). The format is functional, cell-based. The following applies: Homo sapiens.
Assay [4] addresses G protein-coupled receptor kinase 5 (Homo sapiens, UniProt P34947). Put plainly: Navigating the Kinome. Panel member name: GPRK5. The format is functional.
The target in assay [5] is Casein kinase I isoform alpha (Homo sapiens, UniProt P48729). In kind it is functional.
Sequence of Casein kinase I isoform alpha (P48729 whole entry, canonical isoform): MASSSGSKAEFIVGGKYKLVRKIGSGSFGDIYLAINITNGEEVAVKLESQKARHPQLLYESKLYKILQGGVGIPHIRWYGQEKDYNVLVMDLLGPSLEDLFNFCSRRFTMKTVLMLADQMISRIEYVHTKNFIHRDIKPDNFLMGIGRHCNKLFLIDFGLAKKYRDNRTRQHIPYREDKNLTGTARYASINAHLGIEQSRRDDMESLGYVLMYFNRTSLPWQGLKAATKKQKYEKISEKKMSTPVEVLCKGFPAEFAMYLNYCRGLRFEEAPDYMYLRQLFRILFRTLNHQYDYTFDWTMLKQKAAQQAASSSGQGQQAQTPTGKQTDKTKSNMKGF
Assay [6] addresses Vascular endothelial growth factor receptor 1 (Homo sapiens, UniProt P17948). In kind it is functional.
The target of assay [7] is Inhibitor of nuclear factor kappa-B kinase subunit epsilon (Homo sapiens, UniProt Q14164). Put plainly: Navigating the Kinome. Panel member name: IKBKE. In kind it is functional.
In assay [8] the target is Serine/threonine-protein kinase TAO1 (Homo sapiens, UniProt Q7L7X3). In kind it is functional.
Sequence of Serine/threonine-protein kinase TAO1 (Q7L7X3 whole entry): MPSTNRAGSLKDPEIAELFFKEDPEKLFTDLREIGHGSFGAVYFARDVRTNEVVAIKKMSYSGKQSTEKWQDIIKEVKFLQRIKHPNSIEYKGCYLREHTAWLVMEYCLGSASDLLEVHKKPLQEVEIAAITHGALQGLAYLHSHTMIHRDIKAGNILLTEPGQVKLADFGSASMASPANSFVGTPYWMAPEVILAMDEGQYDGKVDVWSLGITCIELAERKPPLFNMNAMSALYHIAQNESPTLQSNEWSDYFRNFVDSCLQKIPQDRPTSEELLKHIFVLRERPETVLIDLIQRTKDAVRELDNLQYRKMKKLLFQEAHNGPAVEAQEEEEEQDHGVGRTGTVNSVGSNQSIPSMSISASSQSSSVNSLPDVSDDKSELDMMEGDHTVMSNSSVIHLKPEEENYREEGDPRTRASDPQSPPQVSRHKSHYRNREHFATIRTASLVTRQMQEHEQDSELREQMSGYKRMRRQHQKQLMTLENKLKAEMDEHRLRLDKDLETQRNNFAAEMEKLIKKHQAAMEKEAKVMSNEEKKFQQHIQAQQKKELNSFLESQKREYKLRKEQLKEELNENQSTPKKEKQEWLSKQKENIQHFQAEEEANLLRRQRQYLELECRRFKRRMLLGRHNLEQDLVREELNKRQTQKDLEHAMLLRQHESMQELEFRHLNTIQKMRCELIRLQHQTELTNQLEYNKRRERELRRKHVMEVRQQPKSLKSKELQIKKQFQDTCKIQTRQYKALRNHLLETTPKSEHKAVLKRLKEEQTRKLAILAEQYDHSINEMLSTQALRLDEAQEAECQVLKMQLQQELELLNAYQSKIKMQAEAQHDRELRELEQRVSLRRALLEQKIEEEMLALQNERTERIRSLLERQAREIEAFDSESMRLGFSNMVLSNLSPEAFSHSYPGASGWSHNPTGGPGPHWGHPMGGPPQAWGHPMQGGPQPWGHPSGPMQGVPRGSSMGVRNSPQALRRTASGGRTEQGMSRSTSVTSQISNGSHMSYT
Assay [9] concerns the target Rho-associated protein kinase 1 (Homo sapiens, UniProt Q13464). The format is functional.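 Also: measured within a broad kinome-wide panel profiling many kinases.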
Assay [10] has as its target Leucine-rich repeat serine/threonine-protein kinase 2 (Homo sapiens, UniProt Q5S007). In kind it is functional.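 Also: value from a broad kinome-wide panel profiling study in which LRRK2 was one of the kinases tested.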
The target in assay [11] is Tyrosine-protein kinase JAK3 (Homo sapiens, UniProt P52333). The format is functional.
The target of assay [12] is Macrophage-stimulating protein receptor (Homo sapiens, UniProt Q04912). Put plainly: Navigating the Kinome. Panel member name: MST1R. The format is functional.
Assay [13] deals with Platelet-derived growth factor receptor beta (Homo sapiens, UniProt P09619). In kind it is functional.
The target in assay [14] is Serine/threonine-protein kinase Chk1 (Homo sapiens, UniProt O14757). The format is functional.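 Also: measured as one member of a kinome-wide kinase profiling panel.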
Sequence of Serine/threonine-protein kinase Chk1 (O14757 whole entry): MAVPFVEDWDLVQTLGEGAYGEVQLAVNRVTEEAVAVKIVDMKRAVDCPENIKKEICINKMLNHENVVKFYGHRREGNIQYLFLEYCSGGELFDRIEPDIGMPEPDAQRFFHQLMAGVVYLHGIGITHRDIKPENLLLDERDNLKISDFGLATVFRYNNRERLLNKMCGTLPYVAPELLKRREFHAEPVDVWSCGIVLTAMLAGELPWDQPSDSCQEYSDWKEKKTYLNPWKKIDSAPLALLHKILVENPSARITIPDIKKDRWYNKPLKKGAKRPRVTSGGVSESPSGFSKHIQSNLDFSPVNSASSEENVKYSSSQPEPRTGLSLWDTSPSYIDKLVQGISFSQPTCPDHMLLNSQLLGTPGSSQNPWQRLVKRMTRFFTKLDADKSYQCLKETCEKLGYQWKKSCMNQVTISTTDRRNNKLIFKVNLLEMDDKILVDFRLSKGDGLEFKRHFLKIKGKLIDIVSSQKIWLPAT
In assay [15] the target is Fibroblast growth factor receptor 1 (Homo sapiens, UniProt P11362). In kind it is functional.
Assay [16] addresses Dual specificity tyrosine-phosphorylation-regulated kinase 1B (Homo sapiens, UniProt Q9Y463). Put plainly: Navigating the Kinome. Panel member name: DYRK1B. The format is functional.
Assay [17] deals with Mitogen-activated protein kinase kinase kinase kinase 2 (Homo sapiens, UniProt Q12851). The format is functional.
The target of assay [18] is Insulin-like growth factor 1 receptor (Homo sapiens, UniProt P08069). Put plainly: Navigating the Kinome. Panel member name: IGF1R. In kind it is functional.
The target in assay [19] is Platelet-derived growth factor receptor alpha (Homo sapiens, UniProt P16234). Put plainly: Navigating the Kinome. Panel member name: PDGFRA. The format is functional.
Assay [20] addresses Tyrosine-protein kinase Fyn (Homo sapiens, UniProt P06241). In kind it is functional.
The target in another assay is LIM domain kinase 1 (Homo sapiens, UniProt P53667). Put plainly: Navigating the Kinome. Panel member name: LIMK1. The format is functional.

Calls of active or inactive are those of the source. A value given as a limit tells only on which side of the number the result lay.

Sequence of Tyrosine-protein kinase Fyn (P06241 whole entry, the tested form may be a part): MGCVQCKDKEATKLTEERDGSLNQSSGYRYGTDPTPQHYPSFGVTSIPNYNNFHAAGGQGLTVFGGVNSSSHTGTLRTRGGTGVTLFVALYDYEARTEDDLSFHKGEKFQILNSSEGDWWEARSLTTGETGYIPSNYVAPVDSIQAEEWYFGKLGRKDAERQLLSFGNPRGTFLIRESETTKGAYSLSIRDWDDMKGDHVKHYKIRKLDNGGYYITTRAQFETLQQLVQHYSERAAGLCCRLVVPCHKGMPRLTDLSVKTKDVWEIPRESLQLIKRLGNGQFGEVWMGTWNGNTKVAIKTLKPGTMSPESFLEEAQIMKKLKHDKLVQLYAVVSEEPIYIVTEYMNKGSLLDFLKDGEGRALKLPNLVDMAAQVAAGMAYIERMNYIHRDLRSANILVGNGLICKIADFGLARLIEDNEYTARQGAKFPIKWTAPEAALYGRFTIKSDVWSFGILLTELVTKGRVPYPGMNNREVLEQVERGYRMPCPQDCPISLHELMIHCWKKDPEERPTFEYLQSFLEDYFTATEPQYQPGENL
Sequence of Dual specificity tyrosine-phosphorylation-regulated kinase 1B (Q9Y463 whole entry): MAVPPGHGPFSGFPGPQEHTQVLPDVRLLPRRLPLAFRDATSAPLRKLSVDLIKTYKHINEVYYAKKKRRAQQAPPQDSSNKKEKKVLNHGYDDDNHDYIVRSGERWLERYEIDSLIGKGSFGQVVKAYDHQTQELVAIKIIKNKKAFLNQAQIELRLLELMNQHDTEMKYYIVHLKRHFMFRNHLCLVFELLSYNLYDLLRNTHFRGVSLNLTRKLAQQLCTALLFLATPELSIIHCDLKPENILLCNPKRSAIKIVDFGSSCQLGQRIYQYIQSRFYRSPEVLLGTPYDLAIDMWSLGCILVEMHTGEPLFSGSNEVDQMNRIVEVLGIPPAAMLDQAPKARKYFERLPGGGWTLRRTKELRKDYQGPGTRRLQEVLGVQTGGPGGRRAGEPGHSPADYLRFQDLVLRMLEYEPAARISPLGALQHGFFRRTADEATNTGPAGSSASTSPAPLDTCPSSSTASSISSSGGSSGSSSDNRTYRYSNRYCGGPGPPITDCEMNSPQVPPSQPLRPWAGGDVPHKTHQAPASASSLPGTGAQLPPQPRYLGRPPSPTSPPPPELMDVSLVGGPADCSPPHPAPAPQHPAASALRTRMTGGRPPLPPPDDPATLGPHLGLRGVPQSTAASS
Sequence of G protein-coupled receptor kinase 5 (P34947 whole entry, canonical isoform): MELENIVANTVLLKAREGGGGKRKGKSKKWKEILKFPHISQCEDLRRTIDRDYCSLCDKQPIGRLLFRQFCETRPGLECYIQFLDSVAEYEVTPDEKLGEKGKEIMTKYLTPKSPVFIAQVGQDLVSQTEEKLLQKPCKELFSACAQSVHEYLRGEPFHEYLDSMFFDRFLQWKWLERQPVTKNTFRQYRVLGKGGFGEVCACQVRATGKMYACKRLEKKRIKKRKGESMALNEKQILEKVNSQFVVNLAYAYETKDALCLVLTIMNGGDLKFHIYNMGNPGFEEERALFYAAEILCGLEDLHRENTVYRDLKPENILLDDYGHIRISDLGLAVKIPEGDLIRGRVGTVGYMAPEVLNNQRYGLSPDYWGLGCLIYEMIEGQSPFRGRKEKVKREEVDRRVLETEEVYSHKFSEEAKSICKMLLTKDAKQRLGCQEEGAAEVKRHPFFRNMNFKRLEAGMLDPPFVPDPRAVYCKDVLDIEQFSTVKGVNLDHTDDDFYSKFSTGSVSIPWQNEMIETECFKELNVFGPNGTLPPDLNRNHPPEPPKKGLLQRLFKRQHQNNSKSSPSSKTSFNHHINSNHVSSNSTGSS
Sequence of Vascular endothelial growth factor receptor 1 (P17948 whole entry): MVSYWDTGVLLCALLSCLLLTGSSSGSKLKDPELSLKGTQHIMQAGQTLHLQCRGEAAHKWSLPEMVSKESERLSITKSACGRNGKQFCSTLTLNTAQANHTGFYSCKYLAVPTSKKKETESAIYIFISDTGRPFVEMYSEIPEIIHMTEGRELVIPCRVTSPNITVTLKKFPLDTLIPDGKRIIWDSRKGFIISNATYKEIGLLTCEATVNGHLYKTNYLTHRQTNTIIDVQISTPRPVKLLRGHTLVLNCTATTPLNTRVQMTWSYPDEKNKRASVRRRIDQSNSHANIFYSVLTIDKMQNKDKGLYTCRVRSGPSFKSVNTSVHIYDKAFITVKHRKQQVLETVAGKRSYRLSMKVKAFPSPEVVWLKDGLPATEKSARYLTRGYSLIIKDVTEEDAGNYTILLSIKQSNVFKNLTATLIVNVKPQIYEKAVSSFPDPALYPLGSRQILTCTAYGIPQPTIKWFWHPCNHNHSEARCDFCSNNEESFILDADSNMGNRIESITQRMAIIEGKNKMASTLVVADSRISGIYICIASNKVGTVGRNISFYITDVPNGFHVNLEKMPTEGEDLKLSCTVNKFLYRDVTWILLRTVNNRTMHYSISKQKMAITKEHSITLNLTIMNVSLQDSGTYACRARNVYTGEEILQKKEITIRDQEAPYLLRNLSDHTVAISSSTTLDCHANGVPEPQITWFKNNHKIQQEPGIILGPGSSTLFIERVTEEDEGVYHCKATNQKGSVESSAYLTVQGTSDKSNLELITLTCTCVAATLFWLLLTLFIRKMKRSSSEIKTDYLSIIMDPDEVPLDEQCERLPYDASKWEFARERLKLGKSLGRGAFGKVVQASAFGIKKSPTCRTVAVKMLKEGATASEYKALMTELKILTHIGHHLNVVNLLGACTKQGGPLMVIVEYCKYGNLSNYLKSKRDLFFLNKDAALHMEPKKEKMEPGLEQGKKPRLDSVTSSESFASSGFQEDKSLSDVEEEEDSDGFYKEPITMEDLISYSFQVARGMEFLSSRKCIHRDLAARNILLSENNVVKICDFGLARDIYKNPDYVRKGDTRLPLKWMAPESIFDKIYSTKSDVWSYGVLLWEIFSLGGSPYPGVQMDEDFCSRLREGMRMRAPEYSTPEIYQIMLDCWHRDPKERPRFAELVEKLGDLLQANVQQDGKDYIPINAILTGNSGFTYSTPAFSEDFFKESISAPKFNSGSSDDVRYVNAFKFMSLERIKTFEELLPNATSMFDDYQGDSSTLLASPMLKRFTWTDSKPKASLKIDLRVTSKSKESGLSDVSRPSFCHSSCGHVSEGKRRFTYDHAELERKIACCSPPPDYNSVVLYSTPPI

As to `CN1CCN(C(c2ccc(C(F)(F)F)cc2)c2cc(Cl)c3cccnc3c2O)CC1` (configuration not stated), the IC50 in assay [1] was 105 µM (inactive). Moreover, the EC50 in assay [2] was 9.3 µM (active).

`NC(=O)c1c(NC(=O)c2cc3ccccc3o2)sc2c1CCC2`: the IC50 in assay [3] was 3.74 µM (active). For the same compound, the EC50 with HT-1080 is listed as > 50 µM (not active).

For `O=C(NC(CCO)c1ccccc1)c1ccc(-c2ccncc2)cc1` (configuration not stated), the Ki in assay [4] is > 3.98 µM (inactive); in assay [5] it was > 3.98 µM (inactive); in [6] it was > 3.98 µM (inactive); in assay [7], > 3.16 µM (inactive); in assay [8], > 6.31 µM (inactive); in assay [9], 0.00631 µM (active). Besides, the Ki in [10] was > 2.51 µM (inactive); in assay [11], > 5.01 µM (inactive); in [12], > 3.98 µM (inactive); in assay [13], > 2 µM (inactive); in assay [14], > 3.16 µM (inactive); in [15], > 3.98 µM (inactive). Further, the Ki in assay [16] was > 2.51 µM (inactive); in assay [17], > 2.51 µM (inactive); in assay [18], > 2.51 µM (inactive); in assay [19] it was > 2.51 µM (inactive); in [20] it was > 6.31 µM (inactive); at LIM domain kinase 1, > 3.16 µM (inactive).

Source of the values: ChEMBL document CHEMBL1201862, “PubChem BioAssay data set” (2004).
